Experimental data reported in US6083940A, “Method and composition for effecting contraception in a mammalian male” (SRI International, priority 1998, dated 2000).
“Also recorded” adds a separate entry of the source.

What was measured:
[1] = system: SEX ACCESSORY GLANDS AND TESTES OF 22-DAY OLD CASTRATED MALE RATS; test: Inhibition of Prostate Growth in Castrated Male Rats (testosterone supplemented); assay type: in vivo, rat; details: for In Vivo Percent Inhibition of Ventral Prostate Weight: castrated male rats given supplemental testosterone; for Final BW / Seminal Vesicle weight / Ventral Prostate weight: ten days, mean ± SE; for inhibition of prostate growth stimulated by exogenous testosterone: male castrated rats, in words
Protocol: Male rats weighing 36 to 38 grams were castrated at the age of 22 days. […] The castrated rats were treated with the steroids once daily for ten consecutive days. On the tenth day following treatment, the rats were sacrificed and autopsied and final seminal vesicle weights and ventral prostate weights determined.

[2] = target: T1, Rat Prostate Androgen Receptor (Rattus norvegicus, UniProt P15207); test: Rat Prostate Androgen Receptor Competition Assay; assay type: binding; details: for Relative Binding Affinity: 5α-DHT set at 100, conc. of 5αDHT at 50% binding inhibition/conc. competitor at 50% binding inhibition × 100; for Relative androgen receptor binding affinity: Table 3, repeats the values of Table 1; for affinity for the rat prostate androgen receptor compared with other known antiandrogens: in words
T1 construct: from tissue; host or cells: prostate cytosol (100,000×g supernatant) of gonadectomized male rats
T1 sequence (P15207 1-902): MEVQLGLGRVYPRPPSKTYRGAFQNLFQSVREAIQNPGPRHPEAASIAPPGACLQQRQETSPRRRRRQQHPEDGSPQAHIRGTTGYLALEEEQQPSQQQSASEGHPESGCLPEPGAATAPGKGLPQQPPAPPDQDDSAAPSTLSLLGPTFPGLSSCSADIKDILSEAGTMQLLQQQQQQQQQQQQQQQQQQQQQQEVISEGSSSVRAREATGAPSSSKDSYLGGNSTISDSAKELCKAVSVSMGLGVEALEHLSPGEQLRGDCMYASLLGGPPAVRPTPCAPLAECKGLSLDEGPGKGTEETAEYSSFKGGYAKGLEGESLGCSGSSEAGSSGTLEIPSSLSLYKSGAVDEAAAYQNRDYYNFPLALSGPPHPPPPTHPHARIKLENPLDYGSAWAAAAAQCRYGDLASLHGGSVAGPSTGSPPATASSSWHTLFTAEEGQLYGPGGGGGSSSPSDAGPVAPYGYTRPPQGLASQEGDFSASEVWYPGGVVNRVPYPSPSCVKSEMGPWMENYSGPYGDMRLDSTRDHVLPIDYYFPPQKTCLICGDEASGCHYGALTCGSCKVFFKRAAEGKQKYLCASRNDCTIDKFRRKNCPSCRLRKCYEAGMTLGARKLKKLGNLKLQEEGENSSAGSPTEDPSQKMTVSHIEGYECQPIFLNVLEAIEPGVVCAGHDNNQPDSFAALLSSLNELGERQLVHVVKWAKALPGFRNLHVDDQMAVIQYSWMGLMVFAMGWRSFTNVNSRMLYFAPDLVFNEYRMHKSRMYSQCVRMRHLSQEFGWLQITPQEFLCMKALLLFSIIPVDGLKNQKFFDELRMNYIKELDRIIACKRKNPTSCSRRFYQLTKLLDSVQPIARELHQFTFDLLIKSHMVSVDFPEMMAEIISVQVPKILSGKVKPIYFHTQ
Protocol: Male rats were gonadectomized 20-22 hours before killing. The animals were killed by decapitation and exsanguination. Prostates were kept on ice immediately after removal from the animals. After trimming off the fats, prostates were minced and homogenized in 3 volumes of Tris-HCl buffer (0.02 M, pH 7.4 containing 1.5 mM EDTA and 10% glycerol). The homogenate was centrifuged at 10,000×g for 10 minutes, and the resulting supernatant was centrifuged again at 100,000×g for 60 minutes. The final supernatant contained the androgen-binding receptor.
The mixture was brought up to 1.0 mL with Tris-HCl buffer used for homogenizing the tissue. The mixture was then incubated at 4° C. for 4 hr., with occasional shaking. At the end of incubation, the receptor-bound androgen was isolated by ammonium sulfate precipitation.
A 70% saturated ammonium sulfate solution was prepared and its pH is adjusted to 7.4 with aqueous NH3. To 1.0 mL of the labeled cytosol, 1.0 mL of the 70% saturated ammonium sulfate was added dropwise with gentle mixing. The sample was let stand at 0-4° C. for 35 minutes, then centrifuged at 10,000×g for 20 minutes. The precipitate was resuspended in 1.0 mL of the above-mentioned Tris-HCl buffer containing 2 mg of bovine albumin. The androgen-receptor complex was immediately reprecipitated by addition of equal volumes of 70% saturated ammonium sulfate. The sample was allowed to stand at 0-4° C. for another 45 minutes, then centrifuged again as outlined above. The supernatant was decanted and the walls of the tubes thoroughly dried with filter paper. The final precipitated protein was resuspended in 1.0 mL of the same buffer and then transferred quantitatively into a counting vial containing 10 mL of Scintisol for counting.

[3] = system: 22 day old castrated male rats, seminal vesicle and ventral prostate; test: standard Hershberger androgenic assay (agonist androgenic activity); assay type: in vivo, rat; details: for dose response curves for androgenic activity: 22 day old castrated male rats; for agonist androgenic activity at the therapeutically effective antiandrogenic dose: by extrapolation to 30.0 mg, castrated male rat; for seminal vesicle weight (agonist androgenic activity) / ventral prostate weight (agonist androgenic activity): doses of 0.8 mg, 1.6 mg, and 3.2 mg, versus vehicle alone; for effect of drug dosage on prostate weight (FIG. 1): increasing dose, in words
[4] = system: SEX ACCESSORY GLANDS AND TESTES OF INTACT SPRAGUE-DAWLEY MALE RATS; test: Effect of Different Doses of Antiandrogen Compound III-1 on Sex Accessory Glands and Testes of Intact Sprague-Dawley Male Rats; assay type: in vivo, Sprague-Dawley rat; details: for Body Weight / Epididymus weight / Seminal Vesicle weight / Ventral Prostate weight / Testes weight: N=4, mean ± SE; for Seminal Vesicle weight: P < .005; for Ventral Prostate weight: P < .01
Source text: The foregoing procedures were used to evaluate the effect of antiandrogen compound III-1 on the sex accessory glands and tests of intact Sprague-Dawley male rats. As may be seen in the Table, […], indicating antagonism on the effect of the testosterone produced.
^a Administered subcutaneously once daily for 12 days

[5] = system: rat ventral prostate explant cultures (prostatein C3 mRNA); test: Measurement of Prostatein C3 mRNA in rat ventral prostate explant culture
Source text: Testosterone was used as a control. […] Addition of androgens to the medium of rat prostate explant cultures maintains the mRNA for C3 subunit of prostatein, and measurement of either prostatein or its C3 subunit mRNA serves as a sensitive, androgen-responsive marker for the explant system.

[6] = compound 30.0 mg/day + testosterone propionate 0.6 mg/day
[7] = 10 mg/day subcutaneously once daily for 12 days, statistically lower than control
[8] = 30 mg/day subcutaneously once daily for 12 days, statistically lower than control, P < .001
[9] = 30 mg/day subcutaneously once daily for 12 days, statistically lower than control
[10] = III-1 2500 nM with dihydrotestosterone 25 nM, N=2
[11] = testosterone propionate 0.6 mg/day alone, N=5
[12] = dihydrotestosterone 25 nM alone, N=3

`C[C@]12Cc3nonc3C[C@@H]1CC[C@@H]1[C@@H]2CC[C@@]2(C)[C@H]1CC[C@@]21CCCO1` [Compound III-1, 2',3'α-Tetrahydrofuran-2'-spiro-17-(5α-androstan(2,3-c]furazan] was tested, and the “In Vivo Percent Inhibition of Ventral Prostate Weight” value (shortened to “In Vivo Percent Inhibition”) [1] was 32.2 ± 9.49%, the “Final BW” value [1, 6] was 89 ± 5 g and the “Seminal Vesicle weight” value [1, 6] was 22.5 ± 1.1 mg. For the same compound, the “Ventral Prostate weight” value [1, 6] was 39.5 ± 4.1 mg, the “inhibition of prostate growth stimulated by exogenous testosterone” value [1] was “inhibit prostate growth stimulated by exogenous testosterone” and the “Relative Binding Affinity” value [2] was 5.8. The “Relative androgen receptor binding affinity” value [2] was 5.8, the “affinity for the rat prostate androgen receptor compared with other known antiandrogens” value [2] was “higher affinity for the androgen rat prostate receptor than all of the other known antiandrogens except cyproterone acetate; also recorded: higher affinity for the rat ventral prostate androgen receptor than the steroidal antiandrogen zanoterone (WIN®49,596); also recorded: higher affinity to the androgen receptor than three other nonsteroidal antiandrogen receptor antagonists flutamide, which is available as an antiandrogen in the United States, nilutamide, developed by Roussel in France, and Casodex® (ICI 176,334)” and the “dose response curves for androgenic activity” value [3] was “Very flat dose response curves”. For the same compound, the “agonist androgenic activity at the therapeutically effective antiandrogenic dose” value [3] was “essentially devoid of agonist androgenic activity”, the “seminal vesicle weight (agonist androgenic activity)” value [3] was “equal to the vehicle alone controls” and the “ventral prostate weight (agonist androgenic activity)” value [3] was “equal to the vehicle alone controls”. The “effect of drug dosage on prostate weight (FIG. 1)” value (from here on “effect of drug dosage”) [3] was “fairly steady prostate weight, even at higher doses”, the “Body Weight” value ([4]; 10 mg/day subcutaneously once daily for 12 days, not statistically different from control) was 295 ± 5 g and the Epididymus weight ([4]; 10 mg/day subcutaneously once daily for 12 days, statistically lower than control, P < .001) was 524 ± 48 mg. The “Seminal Vesicle weight” value [4, 7] was 225 ± 40 mg, the “Ventral Prostate weight” value [4, 7] was 170 ± 13 mg and the Testes weight ([4]; 10 mg/day subcutaneously once daily for 12 days, statistically lower than control, P < .02) was 2.552 ± 111 g. For the same compound, the Epididymus weight [4, 8] was 458 ± 39 mg, the Testes weight [4, 8] was 1.942 ± .062 g and the “Seminal Vesicle weight” value [4, 9] was 242 ± 61 mg. For the same compound, the “Ventral Prostate weight” value [4, 9] was 148 ± 28 mg, the “Body Weight” value ([4]; 30 mg/day subcutaneously once daily for 12 days, statistically lower than control, P < .05) was 277 ± 9 g and the “magnitude of prostatic growth inhibition, dose dependence” value ([4]; Table 4, tentative conclusion) was “appears to be dose dependent”. For the same compound, the “C3/28s × 100, percent of dihydrotestosterone” value [5, 10] was 62%, the “C3 m-RNA, percent of dihydrotestosterone” value [5, 10] was 43% and the “C3 m-RNA” value ([5]; III-1 2500 nM with dihydrotestosterone 25 nM, N=2, 30 disks/explant, printed spread ± 1,603) was 95,130. The “C3/28s × 100” value ([5]; III-1 2500 nM with dihydrotestosterone 25 nM, N=2, printed spread ± 0.8) was 91.8 and the anti-androgenic activity ([5]; III-1/dihydrotestosterone formulation, in words) was “marked anti-androgenic activity”.
For `CC(C)(O)C(=O)Nc1ccc([N+](=O)[O-])c(C(F)(F)F)c1` [Hydroxyflutamide, reference compound], the “Relative Binding Affinity” value [2] was 2.6 and the “Relative androgen receptor binding affinity” value [2] was 2.6.
In the case of `CCC(=O)O[C@H]1CC[C@H]2[C@@H]3CCC4=CC(=O)CC[C@]4(C)[C@H]3CC[C@]12C` [Testosterone propionate, reference compound], the “Final BW” value [1, 11] is reported as 86 ± 4 g, the “Seminal Vesicle weight” value [1, 11] is reported as 26.6 ± 34 mg and the “Ventral Prostate weight” value [1, 11] is reported as 53.4 ± 5.8 mg.
With `CC(=O)O[C@]1(C(C)=O)CC[C@H]2[C@@H]3C=C(Cl)C4=CC(=O)[C@@H]5C[C@@H]5[C@]4(C)[C@H]3CC[C@@]21C` [Cyproterone acetate, reference compound] the “In Vivo Percent Inhibition” value [1] was 54.3 ± 8.34%, the “Seminal Vesicle weight” value [1, 6] was 9.8 ± 0.8 mg and the “Ventral Prostate weight” value [1, 6] was 30.0 ± 3.6 mg.
In the case of `C[C@]12CC[C@H]3[C@@H](CCC4=CC(=O)CC[C@@]43C)[C@@H]1CC[C@@H]2O` [testosterone, reference compound], the “effect of drug dosage” value [3] is reported as “proportionate rise in prostate weight with increasing dose”.
`C#C[C@]1(O)CC[C@H]2[C@@H]3CC[C@H]4Cc5nn(S(C)(=O)=O)cc5C[C@]4(C)[C@H]3CC[C@@]21C` [Win 49,596, zanoterone, reference compound] was tested, and the “Relative Binding Affinity” value [2] was 2.2 and the “Relative androgen receptor binding affinity” value [2] was 2.2.
`C[C@]12CCC(=O)C[C@@H]1CC[C@@H]1[C@@H]2CC[C@]2(C)[C@@H](O)CC[C@@H]12` [5α-Dihydrotestosterone, reference compound] was tested, and the “C3/28s × 100, percent of dihydrotestosterone” value [5, 12] was 100%, the “C3 m-RNA, percent of dihydrotestosterone” value [5, 12] was 100% and the “C3 m-RNA” value ([5]; dihydrotestosterone 25 nM alone, N=3, 30 disks/explant, printed spread ± 32,675) was 219,371. For the same compound, the “C3/28s × 100” value ([5]; dihydrotestosterone 25 nM alone, N=3, printed spread ± 26.9) was 148.9.
In the case of `CCC[C@]1(O)CC[C@H]2[C@@H]3CCC4=CC(=O)CCC4=C3CC[C@@]21C` [Compound II-1, 17α-Propylestra-4,9-dien-17β-ol-3-one], the “In Vivo Percent Inhibition” value [1] is reported as 18.8 ± 5.74%, the “Final BW” value [1, 6] is reported as 88 ± 5 g and the “Seminal Vesicle weight” value [1, 6] is reported as 28.2 ± 2.8 mg. For the same compound, the “Ventral Prostate weight” value [1, 6] was 45.3 ± 2.5 mg, the “inhibition of prostate growth stimulated by exogenous testosterone” value [1] was “inhibit prostate growth stimulated by exogenous testosterone” and the “Relative Binding Affinity” value [2] was 5.7. For the same compound, the “Relative androgen receptor binding affinity” value [2] was 5.7, the “affinity for the rat prostate androgen receptor compared with other known antiandrogens” value [2] was “higher affinity for the androgen rat prostate receptor than all of the other known antiandrogens except cyproterone acetate; also recorded: higher affinity for the rat ventral prostate androgen receptor than the steroidal antiandrogen zanoterone (WIN®49,596); also recorded: higher affinity to the androgen receptor than three other nonsteroidal antiandrogen receptor antagonists flutamide, which is available as an antiandrogen in the United States, nilutamide, developed by Roussel in France, and Casodex® (ICI 176,334)” and the “dose response curves for androgenic activity” value [3] was “Very flat dose response curves”. The “agonist androgenic activity at the therapeutically effective antiandrogenic dose” value [3] was “essentially devoid of agonist androgenic activity”, the “seminal vesicle weight (agonist androgenic activity)” value [3] was “equal to the vehicle alone controls” and the “ventral prostate weight (agonist androgenic activity)” value [3] was “equal to the vehicle alone controls”. The “effect of drug dosage” value [3] was “fairly steady prostate weight, even at higher doses”.
